In US10188661B2, “Topical dosage regimen” (Topokine Therapeutics, Inc., priority 2014, dated 2019):
Where two headings read alike, the source gives them in different places.

How the values were obtained:
[1] = 91-day once-daily latanoprost ointment, plasma PK after last dose in minipigs; format: in vivo; details: both sexes, topical or ocular, 0.5 % w/w; minipig, topical (percutaneous) latanoprost; first-order fit of 24, 48, 72 h plasma values; read-out: terminal elimination half-life
Method: A pharmacokinetic (PK) experiment was conducted on male and female minipigs (n=6 per sex). Ointment comprising latanoprost 0.5% w/w in a vehicle comprising petroleum jelly and isopropyl myristate was applied once daily for 91 days to skin over 10% of body surface area. After the last topical application, plasma PK was assessed by sampling all animals through 24 hours, and in 2 animals per sex over for an additional 48 hours.
(See Sjoquist B et al., The pharmacokinetics of a new antiglaucoma drug, latanoprost, in the rabbit, Drug Metabol […] 1998; 26:745-754; and Sjoquist B and Stjernschantz J, Ocular and systemic pharmacokinetics of latanoprost in humans, Surv Ophthalmol 2002; 47:S6-S12).

[2] = cited from earlier work
[3] = tested on: lower lid steatoblepharon; experiment: Randomized, double-masked, placebo-controlled trial of latanoprost ointment on lower eyelids (steatoblepharon); format: in vivo, human; details: adults, lower eyelids once nightly, washed after 8-10 hours, 10 weeks
Method: A randomized, double-masked, placebo-controlled trial of latanoprost ointment applied to lower eyelids was conducted with adult men and women with lower lid steatoblepharon, i.e., eye bags. Participants received a kit comprising a tube of latanoprost ointment and instructions to apply the topical composition to the lower eyelids once nightly at bedtime. Participants were instructed to wash the lower eyelids 8-10 hours after ointment application, so as to remove the ointment or residue thereof. Treatment continued for 10 weeks.

[4] = humans; cited from earlier work
subcutaneous fat = experiment: 42-day once-daily topical latanoprost trial in minipigs: reduction of subcutaneous fat (microscopy, ImageJ); format: in vivo; details: minipig, 42 days
Method: A randomized, placebo-controlled trial of topical latanoprost was conducted on male and female minipigs. Animals were randomized to no treatment, placebo (vehicle only), latanoprost 0.16%, or latanoprost 0.8% in an emulsion consisting essentially of water, poloxamer, lecithin, and isopropyl palmitate. The treatment was applied once daily to a 400 cm^2 area on the dorsum, with a semi-occlusive dressing. Treatment continued for 42 days.
Animals received a full panel of local and systemic safety assessments over the course of the study. Plasma toxicokinetics (TK) were assessed at various timepoints. After 42 days of treatment, animals were sacrificed. Samples of skin and subcutaneous fat were dissected from the treatment area in a controlled fashion and submitted for microscopic examination by a veterinary pathologist who was not informed of the compound tested or its therapeutic purpose.
Reduction of subcutaneous fat thickness was quantified using ImageJ software. In the high-dose group the mean reduction was 2.2 cubic centimeters of fat per 100 cm^2 of treated skin.

excess submental fat = experiment: Randomized, double-blind, placebo-controlled trial of topical latanoprost on the submental area; format: in vivo, human; details: adults, submental skin 50 cm^2, applied at bedtime, washed after 8-10 hours, 42 days
Method: A randomized, double-blind, placebo-controlled trial of topical latanoprost applied to the submental area was conducted with adult men and women with excess submental fat. In one cohort, participants were randomized to receive latanoprost in an ethanol-based composition, or a matching placebo composition. In another cohort, participants were randomized to receive latanoprost in a petroleum jelly-based composition, or a matching placebo composition. The composition was applied at bedtime to a controlled 50 cm^2 area of submental skin. Participants were instructed to wash the 50 cm^2 area after 8-10 hours, so as to remove the composition. Treatment continued for 42 days.

With `O=C(O)CCC/C=C\C[C@@H]1[C@@H](CC[C@@H](O)CCc2ccccc2)[C@H](O)C[C@@H]1O` [latanoprost free acid] as the compound, how does the half-life [1] read?
Its half-life is 1080 to 1440 min.

And the half-life ([2]; after intravenous administration)?
Its half-life is 9 to 17 min.

What about the half-life ([2]; after ocular administration) of the same compound?
The half-life was 17 to 85 min.

And the half-life ([2]; latanoprost administered intravenously or ophthalmically)?
The half-life was 9 to 85 min.

Which tolerability [3] does the source give for `CC(C)OC(=O)CCC/C=C\C[C@@H]1[C@@H](CC[C@@H](O)CCc2ccccc2)[C@H](O)C[C@@H]1O` [latanoprost] here?
The tolerability was “well tolerated”.

What about the half-life in plasma [4] of the same compound?
The half-life in plasma was “about 17 minutes”.

What about the “subcutaneous fat on microscopic examination” value (subcutaneous fat; 0.16% and 0.8% once daily) of the same compound?
Its value is “Dose-dependent depletion of subcutaneous fat”.

And the “mean reduction of subcutaneous fat” value (subcutaneous fat; high-dose group)?
Its value is 2.2 cubic centimeters of fat per 100 cm^2 of treated skin.

What about the tolerability (excess submental fat) of the same compound?
The tolerability was “well tolerated”.
